Reference: US11434479B2, “Sialic acid binding polypeptide” (priority 2017, dated 2022)
Where a chain is given by its changes, count along the chain named.

Columns and labels:
[1] = target: T1, Streptococcus pneumoniae NanB fragment (residues 30-697, SEQ ID NO:4) variant Sia-PS5, E541Q (Streptococcus pneumoniae serotype 4, UniProt Q54727, E541Q); assay: Bio-layer Interferometry (BLI) steady-state binding to immobilized oligosaccharides; settings: in words
T1 construct: exemplified by a NanB fragment (residues 30-697); poly-histidine; made in house; host or cells: pET28a+ based plasmid
T1 sequence (Q54727 30-692 E541Q): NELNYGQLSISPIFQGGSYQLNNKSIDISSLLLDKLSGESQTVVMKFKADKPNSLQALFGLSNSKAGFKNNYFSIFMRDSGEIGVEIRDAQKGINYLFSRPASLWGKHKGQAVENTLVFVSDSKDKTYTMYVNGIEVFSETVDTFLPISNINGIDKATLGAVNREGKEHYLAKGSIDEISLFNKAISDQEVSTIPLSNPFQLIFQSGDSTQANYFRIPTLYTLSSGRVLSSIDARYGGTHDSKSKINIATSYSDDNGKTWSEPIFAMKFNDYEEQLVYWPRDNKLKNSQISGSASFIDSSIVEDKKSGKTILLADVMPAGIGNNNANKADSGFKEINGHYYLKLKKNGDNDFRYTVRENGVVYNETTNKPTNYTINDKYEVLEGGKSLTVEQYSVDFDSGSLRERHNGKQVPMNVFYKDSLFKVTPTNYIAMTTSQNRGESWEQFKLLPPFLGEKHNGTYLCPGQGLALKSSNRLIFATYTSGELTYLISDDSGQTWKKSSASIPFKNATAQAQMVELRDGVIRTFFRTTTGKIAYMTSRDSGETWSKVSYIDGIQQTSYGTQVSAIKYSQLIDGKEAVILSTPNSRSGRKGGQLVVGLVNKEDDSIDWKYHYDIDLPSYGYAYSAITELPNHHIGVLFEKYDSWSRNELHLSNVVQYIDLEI
Excerpt: (§1) Lsp=lactose (no sialic acid), 3′SL=α2,3-sialyllactose, 6′SL=α2,6-sialyllactose, GD3=GD3 oligosaccharide that contains a terminal α2,8-linked Neu5Ac residue and an internal α2,3-linked Neu5Ac residue.
(§2) The pan-specific sialic acid-recognizing affinity reagent of the invention is exemplified by a NanB fragment (residues 30-697; SEQ ID NO:4) with a single mutation. Exemplary mutation sites include Y653, D270, and E541. Exemplary pan-specific affinity reagents, each having a single mutation in the NanB GH domain as noted, are shown in Table 2 and include Sia-PS1 (Y653F), Sia-PS2 (D270A), Sia-PS3 (D270N), Sia-PS4 (E541A), and Sia-PS5 (E541Q). […] They reduce (Sia-PS2 and Sia-PS3) or effectively eliminate (Sia-PS1, Sia-PS4, and Sia-PS5) catalytic activity, and they broaden specificity for sialic acid ligand binding. The pan-specific sialic acid-recognizing affinity reagent we chose for further validation study was Sia-PS1 that contains the Y653F at active site residue Tyr653. This one mutation, which involves removal of a single hydroxyl group, not only eliminates enzyme activity, but astonishingly introduces pan-specific binding into the mutated, inactivated enzyme, despite its distance from the carbohydrate binding module (CBM) domain of the NanB.
(§3) The flowchart presented in FIG. 2 outlines schematically the methods employed in Example I and II to screen, optimize and select the Lectenz® candidates. The specificity and affinity of potential Lectenz® candidates is evaluated through structurally-guided site-specific and/or site-saturation mutagenesis assays designed to enable the selection of optimal clones. Bio-layer Interferometry (BLI) is used to determine the binding kinetics and affinities for binding to glycans and glycoproteins. Affinity chromatography is performed by immobilizing the Lectenz® candidates in a column format to evaluate their ability to fractionate sialylated- and asialo-glycans and glycoconjugates. All promising Lectenz® candidates are screened against the glycan array at the CFG, which currently contains over 600 O- and N-linked glycans.
(§4) Steady-state binding constants between Lectenz® candidates and sialic acid ligands were measured by BLI.

[2] = target: T2, Streptococcus pneumoniae NanB fragment (residues 30-697, SEQ ID NO:4) variant Sia-PS3, D270N (Streptococcus pneumoniae serotype 4, UniProt Q54727, D270N); assay: as above; settings: in words
T2 construct: exemplified by a NanB fragment (residues 30-697); made in house; host or cells: pET28a+ based plasmid
T2 sequence (Q54727 30-692 D270N): T1 sequence (Q54727 30-692 E541Q) with D241N, Q512E
Excerpt: as §1, §2, §3, §4

**Q.** `CC(=O)N[C@H]1[C@H]([C@H](O)[C@H](O)CO)O[C@@](O[C@H](CO)[C@@H](O)[C@@H]2O[C@@](O[C@H]3[C@@H](O)[C@@H](CO)O[C@@H](O[C@H]4[C@H](O)[C@@H](O)C(O)O[C@@H]4CO)[C@@H]3O)(C(=O)O)C[C@H](O)[C@H]2NC(C)=O)(C(=O)O)C[C@@H]1O` (stereo partly drawn) [GD3, Neu5Acα2,8Neu5Acα2,3Galβ1, 4Glcβ] was tested. Which binding affinity [1] did it give?
**A.** Its binding affinity is “micromolar or sub-micromolar”.

**Q.** What about the binding affinity [2] of the same molecule?
**A.** The binding affinity was “micromolar or sub-micromolar”.

**Q.** For `CC(=O)N[C@H]1[C@H]([C@H](O)[C@H](O)CO)O[C@@](O[C@H]2[C@@H](O)[C@@H](CO)O[C@@H](O[C@H]3[C@H](O)[C@@H](O)C(O)O[C@@H]3CO)[C@@H]2O)(C(=O)O)C[C@@H]1O` (stereo partly drawn) [3′SL, α2,3-sialyllactose], which binding affinity [1] is on record?
**A.** Its binding affinity is “micromolar or sub-micromolar”.

**Q.** And the binding affinity [2]?
**A.** The binding affinity was “micromolar or sub-micromolar”.

**Q.** How did the binding affinity [1] turn out when `CC(=O)N[C@H]1[C@H]([C@H](O)[C@H](O)CO)O[C@@](OC[C@H]2O[C@@H](O[C@H]3[C@H](O)[C@@H](O)C(O)O[C@@H]3CO)[C@H](O)[C@@H](O)[C@H]2O)(C(=O)O)C[C@@H]1O` (stereo partly drawn) [6′SL, 6′-sialyllactose (Neu5Acα2,6Galβ1, 4Glcβ, or 6′SL)] was run?
**A.** The binding affinity was “micromolar or sub-micromolar”.

**Q.** What about the binding affinity [2] of the same molecule?
**A.** The binding affinity was “micromolar or sub-micromolar”.
